Active and inactive are the calls of the source. The calls are words filed in the database; no cut-off is given here.
Target: NAD-dependent malic enzyme (Escherichia coli K12) (UniProt P26616)
Test: Inhibition of Escherichia coli K-12 recombinant NAD-dependent malic enzyme at 0.2 mM

NAD-dependent malic enzyme (Escherichia coli K12), sequence (P26616 whole entry, looked up): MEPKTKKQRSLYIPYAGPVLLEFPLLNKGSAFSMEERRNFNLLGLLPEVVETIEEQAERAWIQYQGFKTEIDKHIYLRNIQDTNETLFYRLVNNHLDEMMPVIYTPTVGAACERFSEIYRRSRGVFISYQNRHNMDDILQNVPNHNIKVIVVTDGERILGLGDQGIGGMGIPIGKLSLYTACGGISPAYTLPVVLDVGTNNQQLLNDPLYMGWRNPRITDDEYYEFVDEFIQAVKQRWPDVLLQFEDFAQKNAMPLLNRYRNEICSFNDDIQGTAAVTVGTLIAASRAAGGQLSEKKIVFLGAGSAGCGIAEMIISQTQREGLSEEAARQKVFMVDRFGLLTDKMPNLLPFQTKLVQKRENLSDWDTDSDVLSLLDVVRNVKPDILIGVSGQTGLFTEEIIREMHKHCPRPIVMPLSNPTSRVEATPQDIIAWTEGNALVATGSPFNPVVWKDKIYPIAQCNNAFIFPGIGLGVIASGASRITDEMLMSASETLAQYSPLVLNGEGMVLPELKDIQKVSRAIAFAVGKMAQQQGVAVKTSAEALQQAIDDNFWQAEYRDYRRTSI

| SMILES | inhibition |
| --- | --- |
| COc1ccc(-c2cn([C@@H]3O[C@H](COP(=O)(O)O)[C@@H](O)[C@H]3O)nn2)cc1 | Active |
| O=P(O)(O)OC[C@H]1O[C@@H](n2cc(CCO)nn2)[C@H](O)[C@@H]1O | Active |
| O=C(NCc1cn([C@@H]2O[C@H](COP(=O)(O)O)[C@@H](O)[C@H]2O)nn1)c1ccccc1 | Active |
| CC(=O)NCc1cn([C@@H]2O[C@H](COP(=O)(O)O)[C@@H](O)[C@H]2O)nn1 | Active |
| O=P(O)(O)OC[C@H]1O[C@@H](n2cc(-c3ccccc3C(F)(F)F)nn2)[C@H](O)[C@@H]1O | Active |
| O=P(O)(O)OC[C@H]1O[C@@H](n2cc(-c3ccccc3)nn2)[C@H](O)[C@@H]1O | Active |
| O=P(O)(O)OC[C@H]1O[C@@H](n2cc(-c3ccc(F)cc3)nn2)[C@H](O)[C@@H]1O | Active |

The remaining lines, values ahead:

| inhibition | SMILES |
| --- | --- |
| Active | Cc1ccccc1-c1cn([C@@H]2O[C@H](COP(=O)(O)O)[C@@H](O)[C@H]2O)nn1 |
| Active | O=P(O)(O)OC[C@H]1O[C@@H](n2cc(-c3ccccc3F)nn2)[C@H](O)[C@@H]1O |
| Active | O=P(O)(O)OC[C@H]1O[C@@H](n2cc(-c3cccc4ccccc34)nn2)[C@H](O)[C@@H]1O |
| Active | Nc1ccccc1-c1cn([C@@H]2O[C@H](COP(=O)(O)O)[C@@H](O)[C@H]2O)nn1 |
